Experimental data as given in the NIST ThermoML archive (doi:10.1021/je900387e).

Experiment: xn = mol fraction of the nth substance listed
Settings: Liquid, Pycnometric method

CCCCCl [1-chlorobutane] + O=C=O
mass density [kg/m3]
Settings | 308.2 K | 313.1 K
6210 kPa, x1 = 0.1488 | 843 | –
6560 kPa, x1 = 0.0981 | 819 | –
6560 kPa, x1 = 0.1488 | 848 | –
6760 kPa, x1 = 0.1488 | – | 825
6790 kPa, x1 = 0.0981 | 825 | –
6850 kPa, x1 = 0.1488 | 853 | –
6910 kPa, x1 = 0.0744 | 786 | –
6980 kPa, x1 = 0.0981 | 827 | –
6980 kPa, x1 = 0.1488 | – | 828
7080 kPa, x1 = 0.0744 | 791 | –
7130 kPa, x1 = 0.0981 | – | 791
7140 kPa, x1 = 0.0981 | 831 | –
7240 kPa, x1 = 0.0483 | 742 | –
7250 kPa, x1 = 0.1488 | 858 | –
7310 kPa, x1 = 0.0981 | – | 795
7310 kPa, x1 = 0.1488 | – | 832
7320 kPa, x1 = 0.0981 | 834 | –
7330 kPa, x1 = 0.0483 | 747 | –
7430 kPa, x1 = 0.0483 | 752 | –
7460 kPa, x1 = 0.0744 | – | 754
7470 kPa, x1 = 0.0744 | 801 | –
7500 kPa, x1 = 0.0981 | 837 | –
7530 kPa, x1 = 0.0483 | 757 | –
7570 kPa, x1 = 0.0981 | – | 802
7640 kPa, x1 = 0.0243 | 670 | –
7640 kPa, x1 = 0.0744 | – | 759
7660 kPa, x1 = 0.0483 | 761 | –
7670 kPa, x1 = 0.0243 | 674 | –
7700 kPa, x1 = 0.0744 | 807 | –
7710 kPa, x1 = 0.0243 | 678 | –
7730 kPa, x1 = 0.0981 | 840 | –
7740 kPa, x1 = 0.0243 | 682 | –
7740 kPa, x1 = 0.1488 | 863 | 837
7770 kPa, x1 = 0.0744 | – | 764
7780 kPa, x1 = 0.0243 | 686 | –
7790 kPa, x1 = 0.0483 | 766 | –
7820 kPa, x1 = 0.0243 | 690 | –
7860 kPa, x1 = 0.0243 | 694 | –
7860 kPa, x1 = 0.0981 | – | 807
7890 kPa, x1 = 0.0483 | – | 693
7940 kPa, x1 = 0.0243 | 701 | –
7940 kPa, x1 = 0.0483 | 770 | 697
7940 kPa, x1 = 0.0744 | – | 769
7940 kPa, x1 = 0.0981 | 843 | –
7950 kPa, x1 = 0.0744 | 812 | –
8000 kPa, x1 = 0.0483 | – | 701
8030 kPa, x1 = 0.0243 | 707 | –
8070 kPa, x1 = 0.0744 | 814 | –
8090 kPa, x1 = 0.0744 | – | 773
8100 kPa, x1 = 0.0483 | – | 707
8110 kPa, x1 = 0.0483 | 776 | –
8120 kPa, x1 = 0.0243 | 713 | –
8170 kPa, x1 = 0.0981 | 846 | –
8180 kPa, x1 = 0.0981 | – | 813
8190 kPa, x1 = 0.1488 | – | 841
8210 kPa, x1 = 0.0483 | – | 713
8220 kPa, x1 = 0.0243 | – | 545
8230 kPa, x1 = 0.0243 | 720 | 549
8230 kPa, x1 = 0.0744 | 817 | –
8250 kPa, x1 = 0.0243 | – | 555
8270 kPa, x1 = 0.0744 | – | 778
8280 kPa, x1 = 0.0243 | – | 563
8280 kPa, x1 = 0.0483 | 780 | –
8290 kPa, x1 = 0.1488 | 868 | –
8300 kPa, x1 = 0.0243 | – | 571
8330 kPa, x1 = 0.0243 | – | 580
8340 kPa, x1 = 0.0483 | – | 719
8350 kPa, x1 = 0.0243 | 727 | –
8350 kPa, x1 = 0.0744 | 820 | –
8360 kPa, x1 = 0.0243 | – | 588
8390 kPa, x1 = 0.0981 | 849 | –
8400 kPa, x1 = 0.0243 | – | 597
8450 kPa, x1 = 0.0483 | – | 725
8470 kPa, x1 = 0.0243 | – | 610
8470 kPa, x1 = 0.0483 | 785 | –
8470 kPa, x1 = 0.0744 | – | 782
8480 kPa, x1 = 0.0243 | 734 | –
8500 kPa, x1 = 0.0744 | 822 | –
8510 kPa, x1 = 0.0981 | – | 819
8550 kPa, x1 = 0.0243 | – | 623
8560 kPa, x1 = 0.0483 | 788 | –
8570 kPa, x1 = 0.0243 | 738 | –
8600 kPa, x1 = 0.0483 | – | 732
8630 kPa, x1 = 0.0981 | 852 | –
8640 kPa, x1 = 0.0744 | 825 | –
8650 kPa, x1 = 0.0243 | – | 637
8670 kPa, x1 = 0.0483 | 790 | –
8680 kPa, x1 = 0.0744 | – | 787
8760 kPa, x1 = 0.0483 | – | 738
8770 kPa, x1 = 0.0243 | – | 651
8770 kPa, x1 = 0.0483 | 793 | –
8800 kPa, x1 = 0.0243 | 748 | –
8830 kPa, x1 = 0.0744 | 828 | –
8840 kPa, x1 = 0.1488 | 873 | –
8890 kPa, x1 = 0.0483 | 795 | –
8890 kPa, x1 = 0.0981 | – | 825
8900 kPa, x1 = 0.0744 | – | 792
8900 kPa, x1 = 0.0981 | 856 | –
8910 kPa, x1 = 0.0243 | 753 | –
8910 kPa, x1 = 0.1488 | – | 849
8930 kPa, x1 = 0.0243 | – | 666
8940 kPa, x1 = 0.0483 | – | 745
8970 kPa, x1 = 0.0744 | 830 | –
9000 kPa, x1 = 0.0483 | 798 | –
9050 kPa, x1 = 0.0243 | 758 | –
9120 kPa, x1 = 0.0483 | 800 | –
9130 kPa, x1 = 0.0243 | – | 682
9150 kPa, x1 = 0.0483 | – | 751
9150 kPa, x1 = 0.0744 | – | 797
9160 kPa, x1 = 0.0744 | 833 | –
9160 kPa, x1 = 0.0981 | 859 | –
9190 kPa, x1 = 0.0243 | 763 | –
9230 kPa, x1 = 0.0483 | 803 | –
9260 kPa, x1 = 0.0981 | – | 830
9330 kPa, x1 = 0.0744 | 836 | –
9350 kPa, x1 = 0.0483 | 805 | –
9370 kPa, x1 = 0.0483 | – | 759
9390 kPa, x1 = 0.0243 | – | 698
9410 kPa, x1 = 0.0744 | – | 802
9450 kPa, x1 = 0.0981 | 862 | –
9450 kPa, x1 = 0.1488 | – | 853
9480 kPa, x1 = 0.1488 | 878 | –
9490 kPa, x1 = 0.0483 | 808 | –
9530 kPa, x1 = 0.0744 | 838 | –
9620 kPa, x1 = 0.0483 | – | 765
9640 kPa, x1 = 0.0483 | 811 | –
9670 kPa, x1 = 0.0744 | – | 807
9700 kPa, x1 = 0.0744 | 841 | –
9710 kPa, x1 = 0.0243 | – | 716
9720 kPa, x1 = 0.0981 | – | 837
9780 kPa, x1 = 0.0483 | 813 | –
9780 kPa, x1 = 0.0981 | 865 | –
9810 kPa, x1 = 0.0483 | – | 770
9910 kPa, x1 = 0.0483 | 815 | –
9940 kPa, x1 = 0.0744 | 844 | –
9960 kPa, x1 = 0.0744 | – | 812
10000 kPa, x1 = 0.0483 | – | 775
10020 kPa, x1 = 0.0243 | – | 729
10030 kPa, x1 = 0.0981 | 869 | –
10110 kPa, x1 = 0.0744 | 846 | –
10150 kPa, x1 = 0.1488 | 883 | –
10190 kPa, x1 = 0.0981 | – | 843
10220 kPa, x1 = 0.0483 | – | 780
10270 kPa, x1 = 0.1488 | – | 860
10280 kPa, x1 = 0.0243 | – | 738
10290 kPa, x1 = 0.0744 | – | 817
10380 kPa, x1 = 0.0981 | 872 | –
10460 kPa, x1 = 0.0483 | – | 785
10510 kPa, x1 = 0.0981 | 874 | –
10550 kPa, x1 = 0.0243 | – | 748
10620 kPa, x1 = 0.0744 | – | 823
10680 kPa, x1 = 0.0483 | – | 790
10690 kPa, x1 = 0.0981 | – | 849
10700 kPa, x1 = 0.0243 | – | 753
10850 kPa, x1 = 0.0243 | – | 758
10850 kPa, x1 = 0.1488 | 888 | –
10860 kPa, x1 = 0.1488 | – | 865
10950 kPa, x1 = 0.0483 | – | 795
11620 kPa, x1 = 0.1488 | 893 | –
12430 kPa, x1 = 0.1488 | 898 | –
13270 kPa, x1 = 0.1488 | 904 | –
13660 kPa, x1 = 0.1488 | 906 | –
14090 kPa, x1 = 0.1488 | 909 | –
14420 kPa, x1 = 0.1488 | 911 | –
14870 kPa, x1 = 0.1488 | 914 | –
